SMILES strings stand for the structures.

Results on one molecule are retold here after patent US20090203753A1, “7-(2-amino-1-hydroxy-ethyl)-4-hydroxybenzothiazol-2(3H)-one-derivatives as beta2 adrenoreceptor agonists” (AstraZeneca AB, priority 2005, published 2009).

In this experiment the target is T1, recombinant human α1D receptor (Homo sapiens, UniProt P25100).
T1 construct: expressed in transfected cells; host or cells: HEK293
T1 sequence (P25100 1-572): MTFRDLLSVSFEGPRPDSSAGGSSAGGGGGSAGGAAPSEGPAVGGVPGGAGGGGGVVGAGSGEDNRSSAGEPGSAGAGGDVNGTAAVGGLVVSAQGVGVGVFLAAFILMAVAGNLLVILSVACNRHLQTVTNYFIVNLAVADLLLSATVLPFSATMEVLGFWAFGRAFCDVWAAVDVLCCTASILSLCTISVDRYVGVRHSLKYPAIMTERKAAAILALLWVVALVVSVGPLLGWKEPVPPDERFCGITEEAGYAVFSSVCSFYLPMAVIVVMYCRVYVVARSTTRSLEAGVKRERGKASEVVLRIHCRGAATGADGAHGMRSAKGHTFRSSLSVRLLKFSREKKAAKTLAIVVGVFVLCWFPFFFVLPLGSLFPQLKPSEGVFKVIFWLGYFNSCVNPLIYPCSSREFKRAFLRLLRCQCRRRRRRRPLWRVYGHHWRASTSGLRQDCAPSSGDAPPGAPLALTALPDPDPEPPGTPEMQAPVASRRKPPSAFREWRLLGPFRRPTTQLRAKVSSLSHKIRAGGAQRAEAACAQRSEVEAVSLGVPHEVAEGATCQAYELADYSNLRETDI
The experiment can be described thus: Adrenergic α1D selectivity assay, [3H]-prazosin binding to HEK293 membranes. The settings on record: read-out: α1 bind pIC50 (converted). The procedure:
Membranes were prepared from human embryonic kidney 293 (HEK293) cells expressing recombinant human α1D receptor. These were diluted in Assay Buffer (50 mM HEPES, 1 mM EDTA, 0.1% gelatin, pH 7.4) to provide a final concentration of membranes that gave a clear window between maximum and minimum specific binding.
Assays were performed in U-bottomed 96-well polypropylene plates. 10 μL [^3H]-prazosin (0.3 nM final concentration) and 10 μL of test compound (10× final concentration) were added to each test well. For each assay plate 8 replicates were obtained for [^3H]-prazosin binding in the presence of 10 μL vehicle (10% (v/v) DMSO in Assay Buffer; defining maximum binding) or 10 μL BMY7378 (10 μM final concentration; defining non-specific binding (NSB)). Membranes were then added to achieve a final volume of 100 μL. The plates were incubated for 2 hours at room temperature and then filtered onto PEI coated GF/B filter plates, pre-soaked for 1 hour in Assay Buffer, using a 96-well plate Tomtec cell harvester. Five washes with 250 μL wash buffer (50 mM HEPES, 1 mM EDTA, pH 7.4) were performed at 4° C. to remove unbound radioactivity. The plates were dried then sealed from underneath using Packard plate sealers and MicroScint-O (50 μL) was added to each well. The plates were sealed (TopSeal A) and filter-bound radioactivity was measured with a scintillation counter (TopCount, Packard BioScience) using a 3-minute counting protocol.
Total specific binding (B0) was determined by subtracting the mean NSB from the mean maximum binding. NSB values were also subtracted from values from all other wells.

Consider `CCN(CC)CCN(CCNC[C@H](O)c1ccc(O)c2[nH]c(=O)sc12)C(=O)CCOCCc1ccccc1` [Example 7, N-[2-(Diethylamino)ethyl]-N-(2-{[(2R)-2-hydroxy-2-(4-hydroxy-2-oxo-2,3-dihydro-1,3-benzothiazol-7-yl)ethyl]amino}ethyl)-3-(2-phenylethoxy)propanamide], for which the IC50 was 5.01 µM.
